# Positions of bridges follow the written chain, without caps; N, C: chain ends. Non-standard residues stand in square brackets, D forms with d. Residues, ends and D or L forms follow the SMILES beside them. Nle = CCCC[C@H](N)C(=O)O
# Molecular target: Urokinase plasminogen activator surface receptor (Homo sapiens, UniProt Q03405)
# Assay: Inhibitory activity against human Urokinase plasminogen activator receptor (uPAR) was determined
# Urokinase plasminogen activator surface receptor, sequence (Q03405 whole entry): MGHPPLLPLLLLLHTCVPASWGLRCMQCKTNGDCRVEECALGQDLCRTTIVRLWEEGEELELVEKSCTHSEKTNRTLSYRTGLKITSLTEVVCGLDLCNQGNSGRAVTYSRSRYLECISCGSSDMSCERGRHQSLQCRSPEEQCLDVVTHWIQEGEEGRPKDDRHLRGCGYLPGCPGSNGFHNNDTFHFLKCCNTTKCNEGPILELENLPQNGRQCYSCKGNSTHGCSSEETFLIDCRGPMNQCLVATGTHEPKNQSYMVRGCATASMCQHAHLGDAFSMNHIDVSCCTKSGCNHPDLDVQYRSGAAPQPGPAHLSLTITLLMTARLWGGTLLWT
row,IC50,SMILES
1,> 30000 nM,CC[C@H](C)[C@@H]1NC(=O)[C@H](CC(N)=O)NC(=O)[C@H](CO)NC(=O)[C@H](Cc2ccccc2)NC(=O)[C@H](Cc2ccc(O)cc2)NC(=O)[C@@H](CCCCN)NC(=O)[C@H](CC(N)=O)NC(=O)[C@@H](N)CSSC[C@@H](C(=O)N[C@@H](Cc2c[nH]c3ccccc23)C(=O)O)NC1=O
2,80 nM,CC[C@H](C)[C@@H]1NC(=O)[C@H](CC(N)=O)NC(=O)[C@H](CO)NC(=O)[C@H](Cc2ccccc2)NC(=O)[C@H](Cc2ccc3ccccc3c2)NC(=O)[C@H](CCCCN)NC(=O)[C@H](CC(N)=O)NC(=O)[C@H](N)CSSC[C@@H](C(=O)N[C@@H](Cc2c[nH]c3ccccc23)C(=O)O)NC1=O
3,900 nM,CC[C@H](C)[C@@H]1NC(=O)[C@H](CC(N)=O)NC(=O)[C@H](CO)NC(=O)[C@H](Cc2ccccc2)NC(=O)[C@H](Cc2ccc(O)cc2)NC(=O)[C@H](CCCCN)NC(=O)[C@H](CC(N)=O)NC(=O)[C@@H](N)CSSC[C@@H](C(=O)N[C@@H](Cc2c[nH]c3ccccc23)C(=O)O)NC1=O
4,> 30000 nM,CC[C@H](C)[C@@H]1NC(=O)[C@H](CC(N)=O)NC(=O)[C@@H](CO)NC(=O)[C@H](Cc2ccccc2)NC(=O)[C@H](Cc2ccc(O)cc2)NC(=O)[C@H](CCCCN)NC(=O)[C@H](CC(N)=O)NC(=O)[C@@H](N)CSSC[C@@H](C(=O)N[C@@H](Cc2c[nH]c3ccccc23)C(=O)O)NC1=O
5,200 nM,CC[C@H](C)[C@@H]1NC(=O)[C@H](CC(N)=O)NC(=O)[C@H](CO)NC(=O)[C@H](Cc2ccccc2)NC(=O)[C@H](Cc2ccc(O)cc2)NC(=O)[C@H](CCCCN)NC(=O)[C@H](CC(N)=O)NC(=O)[C@H](CO)NC(=O)[C@H](C(C)C)NC(=O)[C@H](N)CSSC[C@@H](C(=O)O)NC(=O)[C@H](Cc2c[nH]c3ccccc23)NC(=O)[C@H](Cc2c[nH]cn2)NC1=O
6,50 nM,CC[C@H](C)[C@@H]1NC(=O)[C@H](CC(N)=O)NC(=O)[C@H](CO)NC(=O)[C@H](Cc2ccccc2)NC(=O)[C@H](Cc2cccc3ccccc23)NC(=O)[C@H](CCCCN)NC(=O)[C@H](CC(N)=O)NC(=O)[C@H](N)CSSC[C@@H](C(=O)N[C@@H](Cc2c[nH]c3ccccc23)C(=O)O)NC1=O
7,700 nM,CC[C@H](C)[C@@H]1NC(=O)[C@H](CC(N)=O)NC(=O)[C@H](CO)NC(=O)[C@H](Cc2ccccc2)NC(=O)[C@H](Cc2ccc(O)cc2)NC(=O)[C@H](CCCCN)NC(=O)[C@H](CC(N)=O)NC(=O)[C@H](CO)NC(=O)[C@H](C(C)C)NC(=O)[C@@H](N)CSSC[C@@H](C(=O)O)NC(=O)[C@H](Cc2c[nH]c3ccccc23)NC(=O)[C@H](Cc2c[nH]cn2)NC1=O
8,40 nM,CC[C@H](C)[C@@H]1NC(=O)[C@H](CC(N)=O)NC(=O)[C@H](CO)NC(=O)[C@H](Cc2ccccc2)NC(=O)[C@H](Cc2ccc(O)cc2)NC(=O)[C@H](CCCCN)NC(=O)[C@H](CC(N)=O)NC(=O)[C@H](N)CSSC[C@@H](C(=O)N[C@@H](Cc2c[nH]c3ccccc23)C(=O)O)NC1=O
9,> 30000 nM,CC[C@H](C)[C@@H]1NC(=O)[C@@H](CC(N)=O)NC(=O)[C@H](CO)NC(=O)[C@H](Cc2ccccc2)NC(=O)[C@H](Cc2ccc(O)cc2)NC(=O)[C@H](CCCCN)NC(=O)[C@H](CC(N)=O)NC(=O)[C@@H](N)CSSC[C@@H](C(=O)N[C@@H](Cc2c[nH]c3ccccc23)C(=O)O)NC1=O
10,> 30000 nM,CC[C@H](C)[C@@H]1NC(=O)[C@H](CC(N)=O)NC(=O)[C@H](CO)NC(=O)[C@H](Cc2ccccc2)NC(=O)[C@H](Cc2ccc(O)cc2)NC(=O)[C@H](CCCCN)NC(=O)[C@@H](CC(N)=O)NC(=O)[C@@H](N)CSSC[C@@H](C(=O)N[C@@H](Cc2c[nH]c3ccccc23)C(=O)O)NC1=O
11,60 nM,CCCC[C@@H]1NC(=O)[C@H](CC(N)=O)NC(=O)[C@H](N)CSSC[C@@H](C(=O)N[C@@H](Cc2c[nH]c3ccccc23)C(=O)O)NC(=O)[C@H]([C@@H](C)CC)NC(=O)[C@H](CC(N)=O)NC(=O)[C@H](CO)NC(=O)[C@H](Cc2ccccc2)NC(=O)[C@H](Cc2ccc(O)cc2)NC1=O (H-[dC]N[Nle]YFSNICW-OH; disulfide 1-9)

# From ChEMBL document CHEMBL1135793 (J Med Chem, 2002)
